Assay results as given in US9949975B2, “Inhibitors of beta-secretase” (Vitae Pharmaceuticals, Inc., priority 2012, dated 2018).

Biological target: hERG channel (Homo sapiens (Human), UniProt Q12809)
Assay: hERG-Channel Assay (Assay 3), whole-cell patch clamp
Assay type: cell-based
Details: HEK293 cells transfected with hERG, 35° C.
Excerpt: HEK (human embryonic kidney) 293 cells were stably transfected with hERG cDNA.
Cells were superfused with a bath solution containing (mM): NaCl (137), KCl (4.0), MgCl2 (1.0), CaCl2 (1.8), Glucose (10), HEPES (10), pH 7.4 with NaOH. Patch pipettes were made from borosilicate glass tubing using a horizontal puller and filled with pipette solution containing (mM): K-aspartate (130), MgCl2 (5.0), EGTA (5.0), K2ATP (4.0), HEPES (10.0), pH 7.2 with KOH. Resistance of the microelectrodes was in the range between 2 and 5 MΩ.
Membrane currents were recorded using an EPC-10 patch clamp amplifier and PatchMaster software. hERG-mediated membrane currents were recorded at 35° C., using the whole-cell configuration of the patch-clamp technique. Transfected HEK293 cells were clamped at a holding potential of −60 mV and hERG-mediated inactivating tail currents were elicited using a pulse pattern with fixed amplitudes (activation/inactivation: 40 mV for 2000 ms; recovery: −120 mV for 2 ms; ramp to 40 mV in 2 ms; inactivating tail current: 40 mV for 50 ms) repeated at 15 s intervals. During each inter-pulse interval 4 pulses scaled down by a factor of 0.2 were recorded for a P/n leak subtraction procedure. Rs compensation was employed up to a level that safely allowed recording devoid of ringing.
The different concentrations of the test compound were applied sequentially on each of the different cells investigated. A steady state level of baseline current was measured for at least 6 sweeps prior to the application of the first test compound concentration.
The test compound was dissolved in DMSO to yield a master stock solution which was diluted further in DMSO to stock solutions needed for the lower concentrations. Final dilutions in extracellular buffer were prepared freshly from these stocks by a 1:1000 dilution step each before starting the experiments.
Peak current amplitudes were measured 3 ms after the ramp to +40 mV. For baseline and each concentration the peak currents of the three last sweeps before application of the next concentration were averaged. Residual currents (I/I0) were calculated for each cell as the fraction of actual average peak current and average baseline peak current. Results are presented as percent (%) inhibition (1−I/I0)*100% at 10 μM.

hERG channel, sequence (Q12809 whole entry): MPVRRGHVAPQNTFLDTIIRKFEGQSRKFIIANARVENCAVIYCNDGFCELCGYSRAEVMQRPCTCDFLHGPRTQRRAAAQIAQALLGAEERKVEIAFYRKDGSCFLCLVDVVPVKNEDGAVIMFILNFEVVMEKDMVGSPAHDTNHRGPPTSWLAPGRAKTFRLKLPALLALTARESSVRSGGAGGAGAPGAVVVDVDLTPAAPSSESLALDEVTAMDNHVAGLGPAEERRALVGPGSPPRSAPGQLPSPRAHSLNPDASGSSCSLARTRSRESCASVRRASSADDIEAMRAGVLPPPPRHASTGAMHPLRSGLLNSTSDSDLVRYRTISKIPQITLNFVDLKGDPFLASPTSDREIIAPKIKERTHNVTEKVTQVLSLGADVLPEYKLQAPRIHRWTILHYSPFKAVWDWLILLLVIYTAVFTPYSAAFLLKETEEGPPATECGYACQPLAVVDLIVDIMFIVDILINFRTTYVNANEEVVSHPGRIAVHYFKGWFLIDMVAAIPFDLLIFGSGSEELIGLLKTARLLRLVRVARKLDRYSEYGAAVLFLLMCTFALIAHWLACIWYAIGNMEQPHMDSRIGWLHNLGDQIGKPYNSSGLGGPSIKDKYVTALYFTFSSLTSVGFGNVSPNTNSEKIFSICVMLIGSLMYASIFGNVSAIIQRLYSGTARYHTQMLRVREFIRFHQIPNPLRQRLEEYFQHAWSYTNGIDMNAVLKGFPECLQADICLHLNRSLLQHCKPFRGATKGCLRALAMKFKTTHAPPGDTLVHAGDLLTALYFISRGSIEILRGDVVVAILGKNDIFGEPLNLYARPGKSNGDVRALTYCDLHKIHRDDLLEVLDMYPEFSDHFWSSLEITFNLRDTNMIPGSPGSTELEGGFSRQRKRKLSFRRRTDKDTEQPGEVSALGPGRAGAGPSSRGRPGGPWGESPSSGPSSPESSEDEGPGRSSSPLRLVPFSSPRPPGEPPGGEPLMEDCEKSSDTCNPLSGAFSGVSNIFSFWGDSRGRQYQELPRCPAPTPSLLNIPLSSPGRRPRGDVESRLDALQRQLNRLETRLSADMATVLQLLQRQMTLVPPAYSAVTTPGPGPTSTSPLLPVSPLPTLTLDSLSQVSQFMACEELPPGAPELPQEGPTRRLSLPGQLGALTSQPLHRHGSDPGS

Compound	hERG % inhibition @ 10 μM (assay 3)
CC[C@@H]1C[C@]2(CC[C@H]1OC)Cc1ccc(C#N)cc1[C@]21N=C(N)N(C[C@H]2COCCO2)C1=O [Example 28]	9%
CO[C@H]1[C@H](C)C[C@@]2(Cc3ccc(C#N)cc3[C@]23N=C(N)N(Cc2ncc(F)cn2)C3=O)C[C@@H]1C [Example 10]	38%
CO[C@H]1[C@H](C)C[C@@]2(Cc3ccc(C#N)cc3[C@]23N=C(N)N(CC2(F)CCOCC2)C3=O)C[C@@H]1C [Example 23]	16%
CO[C@H]1[C@H](C)C[C@@]2(Cc3ccc(C#N)cc3[C@]23N=C(N)N(C[C@@H]2CCO2)C3=O)C[C@@H]1C (stereo in doubt) [Example 18]	17%
CO[C@H]1[C@H](C)C[C@@]2(Cc3ccc(C#N)cc3[C@]23N=C(N)N(C2COC2)C3=O)C[C@@H]1C [Example 12]	11%
CO[C@H]1[C@H](C)C[C@@]2(Cc3ccc(C#N)cc3[C@]23N=C(N)N(CC(C)(C)F)C3=O)C[C@@H]1C [Example 17]	12%
CC[C@@H]1C[C@]2(CC[C@H]1OC)Cc1ccc(C#N)cc1[C@]21N=C(N)N(CC2(F)CCOCC2)C1=O [Example 4]	0%
CO[C@H]1CC[C@@]2(Cc3ccc(C#N)cc3[C@]23N=C(N)N(CC2COCCO2)C3=O)C[C@@H]1C (stereo partly drawn) [Example 27]	19%
CO[C@H]1[C@H](C)C[C@@]2(Cc3ccc(F)cc3[C@]23N=C(N)N(CC2(C)OCCO2)C3=O)C[C@@H]1C [Example 29]	7%
CO[C@H]1[C@H](C)C[C@@]2(Cc3ccc(C#N)cc3[C@]23N=C(N)N(C[C@H]2CCCO2)C3=O)C[C@@H]1C [Example 14]	20%
COC1CCC2(CC1)Cc1ccc(C#N)cc1C21N=C(N)N(CC2CCCO2)C1=O (stereo not drawn) [Comparison example drawing 13, reference compound]	16%
CO[C@H]1[C@H](C)C[C@@]2(Cc3ccc(F)cc3[C@]23N=C(N)N(C[C@@H]2CCOC2)C3=O)C[C@@H]1C [Example 25]	10%
CO[C@H]1CC[C@@]2(Cc3ccc(C#N)cc3[C@]23N=C(N)N(Cc2ncccn2)C3=O)C[C@@H]1C [Example 6]	35%
CO[C@H]1CC[C@@]2(Cc3ccc(C#N)cc3[C@]23N=C(N)N(CC2(C)COC2)C3=O)C[C@@H]1C [Example 8]	16%
CO[C@H]1[C@H](C)C[C@@]2(Cc3ccc(C#N)cc3[C@]23N=C(N)N(Cc2ccncn2)C3=O)C[C@@H]1C [Example 24]	23%
CO[C@H]1[C@H](C)C[C@@]2(Cc3ccc(C#N)cc3[C@]23N=C(N)N(C[C@H]2COCCO2)C3=O)C[C@@H]1C [Example 22]	9%
COCCN1C(=O)[C@]2(N=C1N)c1cc(C#N)ccc1C[C@@]21CC[C@H](OC)[C@@H](C)C1 [Example 7]	8%
CO[C@H]1[C@H](C)C[C@@]2(Cc3ccc(C#N)cc3[C@]23N=C(N)N(CCC2COC2)C3=O)C[C@@H]1C [Example 19]	8%
CO[C@H]1[C@H](C)C[C@@]2(Cc3ccc(C#N)cc3[C@]23N=C(N)N(C[C@@H]2COCCO2)C3=O)C[C@@H]1C [Example 21]	24%
CC[C@@H]1C[C@@]2(Cc3ccc(C#N)cc3[C@]23N=C(N)N(CC(C)(C)F)C3=O)C[C@H](C)[C@H]1OC [Example 26]	8%
CO[C@H]1[C@H](C)C[C@@]2(Cc3ccc(C#N)cc3[C@]23N=C(N)N(CC2COC2)C3=O)C[C@@H]1C [Example 13]	18%
CO[C@H]1[C@H](C)C[C@@]2(Cc3ccc(C#N)cc3[C@]23N=C(N)N(CC2(C)COC2)C3=O)C[C@@H]1C [Example 11]	6%
CC[C@@H]1C[C@]2(CC[C@H]1OC)Cc1ccc(C#N)cc1[C@]21N=C(N)N(CC(C)(C)F)C1=O [Example 3]	9%
CO[C@H]1[C@H](C)C[C@@]2(Cc3ccc(C#N)cc3[C@]23N=C(N)N(CC2(C)OCCO2)C3=O)C[C@@H]1C [Example 20]	8%
CO[C@H]1CC[C@@]2(Cc3ccc(C#N)cc3[C@]23N=C(N)N(Cc2ccncn2)C3=O)C[C@@H]1C [Example 9]	16%
CC[C@@H]1C[C@]2(CC[C@H]1OC)Cc1ccc(C#N)cc1[C@]21N=C(N)N(CC2CCOCC2)C1=O [Example 2]	22%
CC[C@@H]1C[C@]2(CC[C@H]1OC)Cc1ccc(C#N)cc1[C@]21N=C(N)N(Cc2ncccn2)C1=O [Example 1]	8%
CO[C@H]1[C@H](C)C[C@@]2(Cc3ccc(C#N)cc3[C@]23N=C(N)N(CC2CCOCC2)C3=O)C[C@@H]1C [Example 16]	6%
CC[C@H]1C[C@@]2(CC[C@@H]1OC)Cc1ccc(C#N)cc1[C@]21N=C(N)N(C[C@H]2CCCO2)C1=O [Example 5]	7%
CO[C@H]1[C@H](C)C[C@@]2(Cc3ccc(C#N)cc3[C@]23N=C(N)N(C[C@@H]2CCCO2)C3=O)C[C@@H]1C [Example 15]	11%
